Assay: Storage stability of MMAM in an aqueous hydrogen peroxide composition with the surfactant under test
Assay type: physicochemical
Details: 2 weight % Dowanol PnB added to the compositions of Example 1
Method: In this example, a number of surfactants were tested for their ability to stabilise methyl morpholinium acetonitrile methylsulphate (MMAM) in the presence of hydrogen peroxide.
The surfactant under test was added to an aqueous composition containing 1 weight % H2O2 and 1.1 weight % MMAM (1.7 weight % Sokalan BM) The active amount of surfactant in the composition was 1 weight %. In a control sample, no surfactant was added.

CCCCOCC(C)O (stereo not shown) [Dowanol PnB, n-butyl monoether of propylene glycol]
effect of solvent on stability: did not have a significant effect on stability

— patent EP1678287B1, “DISPENSER CONTAINING LIQUID BLEACHING COMPOSITION” (Reckitt Benckiser (UK) Limited, priority 2003, dated 2005)
